Reference: paper PMC3420821 (Chemistry & biology, 2011)

Columns and labels:
CB2 receptors [1] = biological target: T1, CB2 receptors (Mus musculus, UniProt P47936); test: NIR-mbc94 binding competition in intact BV-2 cells; settings: read-out: Ki (competition for NIR-mbc94 binding)
CB2 receptors [2] = biological target: T1, CB2 receptors; format: binding; settings: saturation, homogenates of CB2-mid DBT cells
CB2 receptor mRNA = test: qPCR of CB2 receptor mRNA in primary microglia; format: cell-based, mouse; settings: 72 hr
CB2 receptors [3] = settings: ref Rinaldi-Carmona et al., 1998; cited from earlier work

T1 sequence (P47936 whole entry): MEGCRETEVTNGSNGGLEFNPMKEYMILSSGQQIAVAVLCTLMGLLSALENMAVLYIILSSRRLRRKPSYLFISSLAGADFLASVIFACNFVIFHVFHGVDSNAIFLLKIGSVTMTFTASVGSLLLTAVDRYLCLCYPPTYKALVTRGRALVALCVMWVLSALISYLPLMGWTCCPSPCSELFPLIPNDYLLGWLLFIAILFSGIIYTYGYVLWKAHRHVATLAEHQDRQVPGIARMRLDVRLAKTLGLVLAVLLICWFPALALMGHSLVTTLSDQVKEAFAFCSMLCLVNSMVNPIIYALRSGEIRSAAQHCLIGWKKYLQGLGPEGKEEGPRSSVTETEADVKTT

Cc1c(C(=O)c2cccc3ccccc23)c2cccc3c2n1[C@H](CN1CCOCC1)CO3 [WIN55212-2]
Ki (CB2 receptors [1]): 3 nM

CCCCCCC(C)(C)c1ccc([C@@H]2C[C@H](O)CC[C@H]2CCCO)c(O)c1 [[^3H]-CP-55,940]
Kd (CB2 receptors [2]; read-out: Kd of [3H]-CP-55,940): 3.1 nM | Bmax of [3H]-CP-55,940 (CB2 receptors [2]): 6 pmol/mg

IL-4: cytokine that promotes alternative activation phenotype in macrophages/microglia
increase of CB2 receptor mRNA (CB2 receptor mRNA): ~ 5 fold

SR144528
affinity at CB2 receptors (CB2 receptors [3]): nanomolar affinity

TGFβ
effect on CB2 receptor expression (mRNA) (CB2 receptor mRNA): did not affect
